Read-outs that look alike come from different tables or passages of the source. Where a SMILES comes first, the peptide text is derived from it.
Assays:
E. coli ATCC 25922 = assay type: cell-based, Escherichia coli
Procedure: (§1) Bacteria were grown overnight at 37° C. in Mueller-Hinton Broth (MHB; Sigma-Aldrich, St. Louis. MO, USA) in a shaking incubator and aliquoted into cryovials with a 50% glycerol solution in a 1:1 ratio. No additives were added to the MHB during the growth of bacterial isolates. Glycerol stocks were stored at −80° C.
(§2) The antimicrobial activity of the putative AMPs was determined by a broth microdilution assay as described by the Clinical and Laboratory Standards Institute, with the published adaptations for testing of cationic peptides. Escherichia coli 25922 and Staphylococcus aureus 29213 isolates were purchased from the American Type Culture Collection (ATCC; Manassas, VA, USA). A human clinical isolate of Salmonella enterica serovar Enteritidis was provided by the BC Centre for Disease Control. Bacteria from stocks stored at −80° C. were streaked onto nonselective Columbia blood agar with 5% sheep blood (Oxoid) and incubated overnight at 37° C. Next, 2-4 colonies were streaked onto a new agar plate to ensure uniform health of colonies used in the broth microdilution assay. Isolated colonies were suspended in MHB and the optical density was measured with a spectrophotometer to create an initial inoculum concentration of approximately 1×10^8 cfu/mL. The inoculum was diluted 1:250 to a final concentration of 2-8×10^5 cfu/mL, which was confirmed by performing a Total Viability Count (TVC). The TVC consisted of plating a 1:1000 dilution of the final inoculum on nonselective media and was also used to confirm the health and purity of the inoculum in each trial.
(§3) Lyophilized 80 μg peptide aliquots synthesized by GenScript (Piscataway, NJ, USA) were resuspended to 1.28 mg/mL with UltraPure water (Thermo Fisher Scientific, Waltham, MA, USA) and serially diluted in polypropylene 96-well microtiter plates (Greiner Bio-One #650261, Kremsmunster, Austria) from 128 down to 0.5 μg/mL. Two columns per plate were reserved for growth and sterility controls. Inoculum was added to the wells containing the peptide and the growth control. Plates were incubated for 20-24 h at 37° C. The minimum inhibitory concentration (MIC) was determined as the lowest peptide concentration where there was no visible bacterial growth.

S. aureus ATCC 29213 = assay type: cell-based, Staphylococcus aureus
Procedure: as §1, §2, §3

[1] = system: Salmonella enterica serovar Enteritidis (human clinical isolate); assay type: cell-based
Procedure: as §1, §2, §3

[2] = serovar Enteritidis (human clinical isolate)

CC[C@H](C)[C@H](NC(=O)[C@H](Cc1c[nH]cn1)NC(=O)[C@H](Cc1c[nH]cn1)NC(=O)[C@H](Cc1ccc(O)cc1)NC(=O)[C@@H](N)CCCCN)C(=O)N[C@@H](CCCCN)C(=O)N[C@@H](CC(C)C)C(=O)N[C@@H](CCCNC(=N)N)C(=O)N[C@@H](Cc1c[nH]cn1)C(=O)NCC(=O)N[C@@H](CCCNC(=N)N)C(=O)N[C@@H](Cc1c[nH]cn1)C(=O)N[C@@H](CCCNC(=N)N)C(=O)N[C@@H](CCCNC(=N)N)C(=O)N[C@H](C(=O)N[C@H](C(=O)N[C@@H](Cc1c[nH]cn1)C(=O)O)[C@@H](C)CC)[C@@H](C)O [PaVa2, KYHHIKLRHGRHRRTIH] (H-KYHHIKLRHGRHRRTIH-OH; N-terminus and C-terminus assumed)
>128/>128/>128 ug/mL: MIC (ug/mL) E. coli (E. coli ATCC 25922; ATCC 25922) | MIC (ug/mL) S. aureus (S. aureus ATCC 29213; ATCC 29213) | MIC (ug/mL) S. Enteritidis [1, 2]

CC[C@H](C)[C@H](N)C(=O)N[C@H](C(=O)N[C@@H](CCC(=O)O)C(=O)N1CCC[C@H]1C(=O)N[C@H](C(=O)NCC(=O)N[C@H](C(=O)N[C@@H](CCCCN)C(=O)N[C@@H](C)C(=O)N1CCC[C@H]1C(=O)N[C@H](C(=O)N[C@@H](Cc1ccccc1)C(=O)N[C@H](C(=O)N[C@@H](CO)C(=O)N[C@@H](CCC(=O)O)C(=O)N[C@@H](CC(C)C)C(=O)N[C@@H](CCCNC(=N)N)C(=O)NCC(=O)NCC(=O)N[C@@H](Cc1c[nH]c2ccccc12)C(=O)N[C@@H](CC(C)C)C(=O)N[C@@H](CCCCN)C(=O)N[C@@H](CCCCN)C(=O)N[C@@H](CCCNC(=N)N)C(=O)O)[C@@H](C)O)[C@@H](C)O)[C@@H](C)O)C(C)C)[C@@H](C)O [PaVa3] (H-ITEPVGTKAPTFTSELRGGWLKKR-OH; N-terminus and C-terminus assumed)
>128/>128/>128 ug/mL: MIC (ug/mL) E. coli (E. coli ATCC 25922; ATCC 25922) | MIC (ug/mL) S. aureus (S. aureus ATCC 29213; ATCC 29213) | MIC (ug/mL) S. Enteritidis [1, 2]

CC(C)C[C@H](NC(=O)[C@H](C)NC(=O)[C@@H](N)Cc1c[nH]c2ccccc12)C(=O)N[C@@H](CCCNC(=N)N)C(=O)N[C@@H](Cc1c[nH]c2ccccc12)C(=O)N[C@@H](CCCCN)C(=O)N[C@H](C(=O)N[C@@H](CCCNC(=N)N)C(=O)O)[C@@H](C)O [PaVi1, WALRWKTR] (H-WALRWKTR-OH; N-terminus and C-terminus assumed)
>128/>128/>128 ug/mL: MIC (ug/mL) E. coli (E. coli ATCC 25922; ATCC 25922) | MIC (ug/mL) S. aureus (S. aureus ATCC 29213; ATCC 29213) | MIC (ug/mL) S. Enteritidis [1, 2]

C[C@H](NC(=O)CNC(=O)[C@H](CCCNC(=N)N)NC(=O)[C@H](CCC(=O)O)NC(=O)[C@H](CCC(=O)O)NC(=O)[C@@H](N)CCCCN)C(=O)N1CCC[C@H]1C(=O)N[C@@H](CCCCN)C(=O)NCC(=O)N[C@@H](CS)C(=O)N[C@@H](Cc1c[nH]c2ccccc12)C(=O)N[C@H](C(=O)N[C@@H](CCCCN)C(=O)N[C@@H](CO)C(=O)N[C@@H](Cc1ccc(O)cc1)C(=O)N1CCC[C@H]1C(=O)N1CCC[C@H]1C(=O)N[C@@H](CCCCN)C(=O)N1CCC[C@H]1C(=O)N[C@@H](CS)C(=O)N[C@@H](CO)C(=O)NCC(=O)N[C@@H](CCCCN)C(=O)N[C@@H](CCCNC(=N)N)C(=O)O)[C@@H](C)O [PeNi13] (H-KEERGAPKGCWTKSYPPKPCSGKR-OH; N-terminus and C-terminus assumed)
>128/>128/>128 ug/mL: MIC (ug/mL) E. coli (E. coli ATCC 25922; ATCC 25922) | MIC (ug/mL) S. aureus (S. aureus ATCC 29213; ATCC 29213) | MIC (ug/mL) S. Enteritidis [1, 2]

CC(C)C[C@H](NC(=O)[C@H](CCCCN)NC(=O)[C@H](CCCCN)NC(=O)[C@H](CC(C)C)NC(=O)[C@@H](NC(=O)[C@H](Cc1ccc(O)cc1)NC(=O)[C@@H](NC(=O)CNC(=O)[C@H](CCC(=O)O)NC(=O)[C@H](CC(N)=O)NC(=O)[C@H](Cc1c[nH]c2ccccc12)NC(=O)[C@@H]1CCCN1C(=O)[C@H](CO)NC(=O)[C@H](CO)NC(=O)[C@@H]1CCCN1C(=O)[C@H](CC(C)C)NC(=O)[C@@H](N)Cc1ccccc1)[C@@H](C)O)C(C)C)C(=O)N[C@@H](CCCCN)C(=O)N[C@@H](CO)C(=O)O [PeNi15, FLPSSPWNEGTYVLKKLKS] (H-FLPSSPWNEGTYVLKKLKS-OH; N-terminus and C-terminus assumed)
>128/>128/>128 ug/mL: MIC (ug/mL) E. coli (E. coli ATCC 25922; ATCC 25922) | MIC (ug/mL) S. aureus (S. aureus ATCC 29213; ATCC 29213) | MIC (ug/mL) S. Enteritidis [1, 2]

CC[C@H](C)[C@H](NC(=O)[C@H](CCCNC(=N)N)NC(=O)[C@@H](NC(=O)[C@@H]1CCCN1C(=O)[C@H](CCCNC(=N)N)NC(=O)[C@@H](NC(=O)[C@@H]1CCCN1C(=O)[C@H](CCC(N)=O)NC(=O)[C@H](CC(C)C)NC(=O)CNC(=O)[C@@H]1CCCN1C(=O)[C@@H]1CCCN1C(=O)[C@@H](NC(=O)[C@H](CCCCN)NC(=O)[C@H](Cc1c[nH]c2ccccc12)NC(=O)[C@H](C)NC(=O)[C@@H](NC(=O)[C@H](C)N)[C@@H](C)O)C(C)C)[C@@H](C)CC)[C@@H](C)CC)C(=O)N[C@@H](CCCNC(=N)N)C(=O)N1CCC[C@H]1C(=O)N[C@@H](CC(C)C)C(=O)N[C@@H](CS)C(=O)NCC(=O)N[C@@H](CC(N)=O)C(=O)N[C@@H](CC(=O)O)C(=O)N[C@@H](CCCCN)C(=O)N[C@@H](CO)C(=O)O [PeNi16] (H-ATAWKVPPGLQPIRPIRIRPLCGNDKS-OH; N-terminus and C-terminus assumed)
>128/>128/>128 ug/mL: MIC (ug/mL) E. coli (E. coli ATCC 25922; ATCC 25922) | MIC (ug/mL) S. aureus (S. aureus ATCC 29213; ATCC 29213) | MIC (ug/mL) S. Enteritidis [1, 2]

N=C(N)NCCC[C@H](NC(=O)[C@H](CCCNC(=N)N)NC(=O)[C@H](CO)NC(=O)[C@H](CCCNC(=N)N)NC(=O)[C@H](Cc1c[nH]cn1)NC(=O)[C@H](CO)NC(=O)[C@H](Cc1c[nH]c2ccccc12)NC(=O)[C@H](CCCNC(=N)N)NC(=O)[C@@H]1CCCN1C(=O)[C@@H](N)CCCNC(=N)N)C(=O)O [PeNi18, RPRWSHRSRR] (H-RPRWSHRSRR-OH; N-terminus and C-terminus assumed)
>128/>128/>128 ug/mL: MIC (ug/mL) E. coli (E. coli ATCC 25922; ATCC 25922) | MIC (ug/mL) S. aureus (S. aureus ATCC 29213; ATCC 29213) | MIC (ug/mL) S. Enteritidis [1, 2]

CC[C@H](C)[C@H](NC(=O)[C@H](C)NC(=O)[C@H](Cc1ccccc1)NC(=O)[C@H](C)NC(=O)[C@H](C)NC(=O)[C@@H](N)C(C)C)C(=O)N[C@H](C(=O)NCC(=O)N[C@@H](CS)C(=O)N[C@@H](CC(C)C)C(=O)N[C@@H](CS)C(=O)N[C@@H](CS)C(=O)N[C@@H](CCCNC(=N)N)C(=O)N[C@@H](CCCNC(=N)N)C(=O)N1CCC[C@H]1C(=O)N[C@@H](CCCNC(=N)N)C(=O)N[C@@H](CCCNC(=N)N)C(=O)O)[C@@H](C)CC [PoRo1, VAAFAIIGCLCCRRPRR] (H-VAAFAIIGCLCCRRPRR-OH; N-terminus and C-terminus assumed)
>128/>128/>128 ug/mL: MIC (ug/mL) E. coli (E. coli ATCC 25922; ATCC 25922) | MIC (ug/mL) S. aureus (S. aureus ATCC 29213; ATCC 29213) | MIC (ug/mL) S. Enteritidis [1, 2]

CC[C@H](C)[C@H](NC(=O)CNC(=O)[C@H](CO)NC(=O)[C@H](CC(C)C)NC(=O)[C@H](CC(C)C)NC(=O)CN)C(=O)N[C@@H](CC(C)C)C(=O)NCC(=O)N[C@@H](C)C(=O)NCC(=O)N[C@@H](CCCCN)C(=O)N[C@@H](CCCCN)C(=O)O [RaOm1, GLLSGILGAGKK] (H-GLLSGILGAGKK-OH; N-terminus and C-terminus assumed)
>128/>128/>128 ug/mL: MIC (ug/mL) E. coli (E. coli ATCC 25922; Table 14, first value of the cell, three independent experiments, highest concentration tested 128) | MIC (ug/mL) S. aureus (S. aureus ATCC 29213; Table 14, third value of the cell, three independent experiments, highest concentration tested 128) | MIC (ug/mL) S. Enteritidis ([1]; Table 14, second value of the cell, three independent experiments, highest concentration tested 128)

N=C(N)NCCC[C@H](NC(=O)[C@H](CCCNC(=N)N)NC(=O)CNC(=O)[C@H](Cc1ccccc1)NC(=O)[C@@H]1CCCN1C(=O)[C@H](Cc1ccccc1)NC(=O)[C@@H]1CCCN1C(=O)[C@@H](N)Cc1ccccc1)C(=O)O [RaSi2, FPFPFGRR] (H-FPFPFGRR-OH; N-terminus and C-terminus assumed)
>128/>128/>128 ug/mL: MIC (ug/mL) E. coli (E. coli ATCC 25922; ATCC 25922) | MIC (ug/mL) S. aureus (S. aureus ATCC 29213; ATCC 29213) | MIC (ug/mL) S. Enteritidis [1, 2]

CC(C)C[C@H](NC(=O)CNC(=O)[C@H](Cc1ccccc1)NC(=O)[C@@H]1CCCN1C(=O)[C@@H](N)C(C)C)C(=O)N[C@@H](CCCCN)C(=O)N1CCC[C@H]1C(=O)N[C@@H](CCCNC(=N)N)C(=O)O [TeRu1, VPFGLKPR] (H-VPFGLKPR-OH; N-terminus and C-terminus assumed)
>128/>128/>128 ug/mL: MIC (ug/mL) E. coli (E. coli ATCC 25922; ATCC 25922) | MIC (ug/mL) S. aureus (S. aureus ATCC 29213; ATCC 29213) | MIC (ug/mL) S. Enteritidis [1, 2]
